The values that follow come from publication PMC5641083, “Blockage of FOXP3 transcription factor dimerization and FOXP3/AML1 interaction inhibits T regulatory cell activity: sequence optimization of a peptide inhibitor” (Oncotarget, 2017).

Broadly, the IC50 is the concentration needed to halve the response being measured. In general, half-life refers to the time in which the quantity being followed falls by half.

One data set deals with T1, FOXP3/AML1 interaction (Homo sapiens, UniProt Q9BZS1).
T1 sequence (Q9BZS1 1-431): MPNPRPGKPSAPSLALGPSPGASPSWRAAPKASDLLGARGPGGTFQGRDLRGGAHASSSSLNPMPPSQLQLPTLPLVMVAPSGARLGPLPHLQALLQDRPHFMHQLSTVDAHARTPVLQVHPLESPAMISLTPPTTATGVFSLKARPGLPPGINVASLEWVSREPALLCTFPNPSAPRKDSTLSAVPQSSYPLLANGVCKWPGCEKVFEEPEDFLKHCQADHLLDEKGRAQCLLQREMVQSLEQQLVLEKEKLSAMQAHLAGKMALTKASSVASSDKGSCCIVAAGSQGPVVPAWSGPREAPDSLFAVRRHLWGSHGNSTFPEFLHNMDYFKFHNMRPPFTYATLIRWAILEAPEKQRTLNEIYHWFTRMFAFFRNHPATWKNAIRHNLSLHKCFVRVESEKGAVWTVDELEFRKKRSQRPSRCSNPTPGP
Description: AlphaScreen FOXP3/AML1 heterodimerization assay. The data set is classed as biochemical. The source says: (§1) AML1 is required for IL-2 and IFN-γ gene expression in conventional CD4+ T cells and its interaction with FOXP3 is needed for the immunosuppressive activity of Tregs. On the other hand, it has been described that the leucine zipper region is necessary and sufficient to mediate FOXP3 homo-dimerization, which is required for its function as a transcriptional regulator [13, 15, 20]. Thus, since P60 binds to this FOXP3 intermediate region, we analyzed if it could act as a decoy molecule to inhibit FOXP3 homodimerization or the FOXP3-AML1 heterodimerization. The capacity of FOXP3 to homodimerize was measured using the […] assay platform AlphaScreen™ (Perkin Elmer). Previous protein-cross titration experiment using different concentrations of FOXP3-6His (from 1000 to 0 nM) and GST-FOXP3 (from 300 to 0 nM) allowed us to define the optimal protein concentrations to analyze FOXP3 homodimerization (Figure 2A). […] We also tested if GST tagged FOXP3 was able to interact with AML1 protein tagged with 6 His at the N-terminus. As shown in the cross titration experiments in Figure 2C, a specific FOXP3-AML1 heterodimerization was visualized as an increase in the AlphaScreen signal.
(§2) FOXP3/AML1 heterodimerization, as well as FOXP3/FOXP3 homodimerization were analyzed by Alphascreen technology according to the manufacturer's instructions (Perkin Elmer, Benelux) as previously described.
In general terms: In Alpha technology, singlet oxygen from a donor bead excites a nearby acceptor bead.

For the next data set, the system named is murine Treg cells. The data set is classed as cell-based, BALB/c mice. The text has this: Results shown in Figures 1–3 correspond to cell-free assays where peptides can interact directly with its corresponding protein partner. However, FOXP3 binding peptides need to enter into the cell in order to inhibit FOXP3 functions. Once we identified some mutants with higher capacity to bind FOXP3, we studied their capacity to inhibit the suppressor activity of natural Tregs in vitro. Thus, we activated effector T cells with anti-CD3 monoclonal antibody in the presence of Tregs, and analyzed the capacity of each peptide to restore T cell proliferation inhibited by Treg cells. […] Indeed, when results from the point-variant screening are represented as a heat map, it is clear that introduction of an alanine at positions 2, 5 and 11 improved activity of the original P60, whereas alanine mutations at positions 1, 7, 8, 9, 10 and 12 are detrimental (Figure 4C).
Isolation of murine CD4^+CD25^+, and CD4^+CD25^− T-cells was performed from murine spleen cells by using murine regulatory T-cell isolation kit (Miltenyi Biotec, Bergisch Gladbach, Germany) according to manufacturer's instructions. The purity of the resulting T-cell populations was confirmed to be > 95% by flow cytometry.
Inhibition of murine T regulatory cell function was measured in an in vitro assay of T-cell stimulation. CD25+ depleted spleen cells (10^5 cells/well) from BALB/c mice were stimulated in vitro with 2, 5 μg/ml of anti-mouse CD3 antibody (Pharmingen) in the presence/absence of purified Treg cells (10^4 cells/well). T-cell proliferation was measured 3 days later as previously described.

The target in data set [1] is T2, FOXP3/FOXP3 homodimerization (GST-FOXP3 and FOXP3-His) (Homo sapiens, UniProt Q9BZS1).
T2 construct: made in house; host or cells: E. coli
T2 sequence (Q9BZS1 1-421): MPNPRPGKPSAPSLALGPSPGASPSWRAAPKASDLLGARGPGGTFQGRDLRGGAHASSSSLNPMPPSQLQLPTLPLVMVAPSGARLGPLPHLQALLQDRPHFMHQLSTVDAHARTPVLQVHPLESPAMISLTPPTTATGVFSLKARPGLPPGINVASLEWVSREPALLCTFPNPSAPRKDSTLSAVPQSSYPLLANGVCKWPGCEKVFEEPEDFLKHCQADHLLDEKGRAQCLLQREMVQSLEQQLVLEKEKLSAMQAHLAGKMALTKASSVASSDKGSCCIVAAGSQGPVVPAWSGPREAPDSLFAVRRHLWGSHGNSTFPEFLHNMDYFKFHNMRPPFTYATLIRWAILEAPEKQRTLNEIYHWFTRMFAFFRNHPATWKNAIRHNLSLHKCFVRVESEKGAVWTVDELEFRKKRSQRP
Nature of the data set: AlphaScreen FOXP3 homodimerization assay. Format: biochemical. The conditions noted are these: GST-FOXP3 40 nM, FOXP3-His 300 nM.
From the text: as §1, §2

In data set [2] the test system is FOXP3-6His (native FOXP3, 1-421). Nature of the data set: Surface plasmon resonance, peptide binding to FOXP3-coated chip. The conditions noted are these: for FOXP3 binding by SPR (in words): peptides at 2.5 μM, N-terminal acetylation and C-terminal amidation. Here is the method:
Using truncated versions of FOXP3, we attempted to identify the FOXP3 domain interacting with peptide P60, described previously by or group as a FOXP3 inhibitory peptide. Thus, besides native FOXP3 we prepared the deletion mutants FOXP3 (1-331) (lacking the C-terminus of FOXP3), FOXP3 (177-421) (lacking the N-terminus) and FOXP3 (1-177) (encompassing only the N-terminus of FOXP3) (Figure 1A). They were coated on a chip for SPR experiments.
Screening of peptide binding to FOXP3 was performed by surface plasmon resonance (SPR) using ProteOn XPR36 (Bio-Rad, Hercules CA, USA) optical biosensor. Recombinant protein FOXP3-6His and the indicated truncated versions of FOXP3 were produced and purified from E-coli and immobilized covalently onto a GLM sensor chip (Bio-Rad) using sulfo-NHS and EDC (Bio-Rad) coupling reagents. After protein immobilization, chip surface was treated with ethanolamine to deactivate the excess of reactive esters. Individual peptide solutions (1–20 μM) were injected by triplicate in running buffer (Phosphate buffered saline, 0.005% (v/v) Tween 20, pH 7.4) at a flow of 30 μl/min. The interspot signal (obtained in the chip surface not immobilized with protein) was used as reference.

Data set [3] can be described thus: Metabolic stability in mouse liver microsomes. Format: in vitro ADME. The conditions noted are these: 1 μM, estimated by first order kinetics. How it is done: (§3) Metabolic stability was measured by Wuxi AppTech (Shanghai, China). Briefly, peptides (1 μM, 5% MeOH in potassium phosphate buffer) were incubated with human (catalogue no. 452161 from BD Gentest) and mouse (catalogue no. M1000, Xenotech) liver microsomes at 37°C for 10 min. Liver microsomes were at a final assay concentration of 0.7 mg protein/mL. The reaction was started by the addition of 90 μL of NADP cofactor solution and stopped by the addition of 300 μL of stop solution (acetonitrile at 4°C, including 100 ng/mL tolbutamide as an internal standard) after 20 min of incubation. The samples were shaken for 5 min and then centrifuged for 20 min at 1500 g. A 100 μL aliquot of the supernatant was transferred to eight new 96-well plates with 300 μL of HPLC water and centrifuged at 1500 g for LC-MS/MS analysis (Shimadzu LC 10-AD−API 4000). An injection volume of 10 μL was added to a Phenomenex Synergi C18 column eluting with formic acid in water or acetonitrile at a flow rate of 800 μL/min. The percent loss of parent compound was calculated from the peak area ratio of the analyte/internal standard. Compounds and positive controls were tested in duplicate.

Data set [4] is described as follows: Metabolic stability in human liver microsomes. To be noted: 1 μM, estimated by first order kinetics. Format: in vitro ADME. Here is the method:
as §3

A further data set deals with Hepa-129 cells. Nature of the data set: Hepa-129 subcutaneous tumor rejection model. The conditions noted are these: Hepa-129 s.c. Format: in vivo, C3H/HeN mice. Here is the method: Seven days after Hepa-129 cells injection, when the tumor reached 5 mm in diameter, mice were treated with CM-1215 (from days 7 to 16, 50μg/day/mouse) or anti-PD1 antibodies (50 μg/mice) at days 7 and 14. A group of mice treated with anti-PD1 received also 10 consecutive i.p. administrations of CM-1215 from days 7 to 16 (50 μg/day/mouse).
For tumor rejection experiments, Hepa-129 cells (10^6 cells/mouse), were injected subcutaneously (sc) in C3H/HeN mice (n = 6). Ten days later, when the tumor reached 5 mm in diameter, mice were randomly divided into different experimental groups. A group of mice were treated i.p. with anti-PD1 antibodies (50 μg/mouse). Antibody administration was repeated one week after this first administration. A group of mice treated with anti-PD1 also received the cyclic peptide CM-1215 from days 10 to 20 (50 μg/mice/day). Tumor size, presented as the average of two perpendicular diameters (millimetres), was measured at regular intervals. Mice were sacrificed when the mean tumor diameter was greater than 20 mm. […] Tumor size was monitored twice a week with a calliper and it was expressed according to the formula V = (length × width^2)/2. […]

Where two headings read alike, the source gives them in different places. Where a SMILES comes first, the peptide text is derived from it.

For H-RAFQSFRKMWPFFAM-OH [P60-D2A], at FOXP3/AML1 interaction, the “Inhibition of FOXP3-AML1 heterodimerization (in words)” value is given as “inhibited”. Moreover, in the data set with murine Treg cells (in vitro cell based bioassay, read-out: IC50 to inhibit Treg activity), the IC50 worked out at 27.2 µM. The “Inhibition of FOXP3 homodimerization (in words)” value in data set [1] was “inhibited”.

As to `CSCC[C@@H]1NC(=O)[C@H](C)NC(=O)[C@H](Cc2ccccc2)NC(=O)[C@H](Cc2ccccc2)NC(=O)[C@@H]2CCCN2C(=O)[C@H](Cc2c[nH]c3ccccc23)NC(=O)[C@H](CCSC)NC(=O)[C@H](CCCCN)NC(=O)[C@H](CCCNC(=N)N)NC(=O)[C@H](Cc2ccccc2)NC(=O)[C@H](C)NC(=O)[C@H](CCC(N)=O)NC(=O)[C@H](Cc2ccccc2)NC(=O)[C@H](C)NC(=O)[C@H](CCCNC(=N)N)NC1=O` [CM-1215] (cyclo(RAFQAFRKMWPFFAM)), in data set [2] (FOXP3 coated on chip, mutants compared with original P60), the “FOXP3 binding capacity by SPR (in words)” value is given as “improved very significantly its capacity to bind to FOXP3”. Further, in data set [3], the half-life was around 8 min. The compound also yielded an IC50 with murine Treg cells of 0.77 µM. For the same compound, in data set [4], the “T1/2” value is given as 5.30 min and the half-life is around 8 min. Besides, the “Antitumor effect / survival, single agent (in words)” value in the data set on Hepa-129 cells (CM-1215 50μg/day/mouse i.p. days 7 to 16, anti-PD1 50 μg/mice days 7 and 14) is listed as “some beneficial effect on the percentage of survival, this response did not reach statistical significance”. Moreover, in the data set on Hepa-129 cells (anti-PD1 50 μg days 7 and 14 plus CM-1215 50 μg/day/mouse i.p. days 7 to 16, p < 0.001), the “Antitumor activity in combination with anti-PD1 (in words)” value is reported as “exhibited antitumor activity”.

As for “Ac-RAFQAFRKMWAFFAM-NH2 [P60-D2A-S5A-P11A]”, the “Inhibition of FOXP3-AML1 heterodimerization (in words)” value on FOXP3/AML1 interaction is “significantly improved the capacity of the original P60 peptide to inhibit this interaction”. Also, the “FOXP3 binding by SPR (in words)” value in data set [2] is “improved very significantly the FOXP3 binding capacity”. The IC50 with murine Treg cells came to 2.95 µM.

For the compound Ac-RAFQAFRKMWPFFAM-NH2 [P60-D2A-S5A], the “Inhibition of FOXP3-AML1 heterodimerization (in words)” value on FOXP3/AML1 interaction was “significantly improved the capacity of the original P60 peptide to inhibit this interaction”. The “FOXP3 binding by SPR (in words)” value in data set [2] was “improved FOXP3 binding”. The half-life in data set [3] and in data set [4] was below 2.5 min throughout. In the data set on murine Treg cells, the midpoint of inhibition, the IC50, lay at 1.89 µM.
